Values after ≈ are worked out from the molar mass of the structure shown.
What was measured:
[1] = test system: lettuce (Lactuca sativa cv. L., Iceberg); assay: Phytotoxicity assay, lettuce; settings: 1 mg/mL; visual ranking on scale of 0 to 5; in the presence of light
[2] = test system: bentgrass (Agrostis stolonifera); assay: Phytotoxicity assay, bentgrass; settings: 1 mg/mL; visual ranking on scale of 0 to 5; in the presence of light
[3] = test system: Leishmania donovani promastigotes; assay: Antileishmanial assay; type: cell-based; settings: read-out: Antileishmanial activity IC90
[4] = test system: methicillin-resistant Staphylococcus aureus ATCC 33591 (MRSA); assay: Antimicrobial assay, methicillin-resistant Staph. aureus; type: cell-based; settings: ATCC33591|MRSA
[5] = test system: Staphylococcus aureus ATCC 29213; assay: Antimicrobial assay, methicillin-sensitive Staph. aureus; type: cell-based; settings: ATCC29213
[6] = test system: Plasmodium falciparum W2 (chloroquine resistant) strain; assay: Antiplasmodial assay, chloroquine-resistant; type: cell-based; settings: selectivity index = IC50 for cytotoxicity (Vero)/IC50 for antiplasmodial activity
[7] = test system: Plasmodium falciparum D6 (chloroquine sensitive) strain; assay: Antiplasmodial assay, chloroquine-sensitive; type: cell-based; settings: selectivity index = IC50 for cytotoxicity (Vero)/IC50 for antiplasmodial activity
[8] = test system: Vero cells (kidney fibroblast); assay: Cytotoxicity to Vero cells; type: cell-based

Row | Compound | Phytotoxic activity ranking, lettuce [1] | Phytotoxic activity ranking, bentgrass [2] | further results
1 | COc1c(C[C@@H](C)OC(C)=O)c2c3c(C[C@@H](C)O)c(OC)c(=O)c4c(O)cc5c(c6c(cc(O)c(c1=O)c62)OCO5)c43 [Compound 6, (+)-14-O-acetylcercosporin] | 2 | 4 | IC90 [3]: 8.5 µM
2 | COc1c(C[C@@H](C)O)c2c3c(C[C@@H](C)O)c(OC)c(=O)c4c(O)cc5c(c6c(cc(O)c(c1=O)c62)OCO5)c43 [Compound 5, (+)-cercosporin] | 3 | 2 | MIC [4]: 5 ng/mL (≈ 9.35 nM); MIC [5]: 2.5 ng/mL (≈ 4.68 nM)
3 | COc1c(C[C@@H](C)OC(C)=O)c2c3c(C[C@@H](C)OC(C)=O)c(OC)c(=O)c4c(O)cc5c(c6c(cc(O)c(c1=O)c62)OCO5)c43 [Compound 7, (+)-di-O-acetylcercosporin] | 3 | 4 | –
4 | CC[C@@H](C)[C@H]1O[C@@H](c2c(OC)c(-c3ccccc3)c[n+]([O-])c2OC)[C@H](C)C[C@@H]1C [Compound 10c] | – | – | Chloroquine-resistant (W2)-clone S. I. [6]: >1.2; Chloroquine-sensitive (D6)-clone S.I. [7]: >1.1
5 | 13-(R)-hydroxy-N-(O-methyl)septoriamycin A [Compound 4] | – | – | Cytotoxicity to Vero cells IC50 [8]: no antimicrobial, antifungal, antiprotozoal, phytotoxic, or cytotoxic activity

— PMC3361971 (Journal of Natural Products, 2012)
